From patent US12187663B2, “Thyromimetics with a biphenylmethane scaffold and their use” (INTERNATIONAL SOCIETY FOR DRUG DEVELOPMENT S.R.L., priority 2019, dated 2025)

Key:
HepG2 cells [1] = assay: Total lipid accumulation by Oil Red O staining; assay type: cell-based, Human; conditions: 25 μM
Protocol: Total lipid accumulation was evaluated according to the method previously described by Liu et al.. […] Cloroquine (25 μM) and Isoproterenol (10 μM) were used as positive controls. Subsequently, after collecting the growth media to be used to perform glycerol level measurements (as detailed below), cells were rinsed twice with PBS and fixed in 4% paraformaldehyde in PBS for 30 min. Then, cells were stained with Oil Red O working solution for 1 h at room temperature and subsequently rinsed with water.
The Oil Red O stock solution was prepared by dissolving 0.35 g of Oil Red O (Sigma Aldrich, Milan, Italy) in 100 mL of isopropanol by gentle heating and then cooled and filtered through a 0.45 μm filter. The working solution was prepared by diluting three parts of the stock solution in two parts of MilliQ water (stock solution:MilliQ water; 3:2 v/v). The cell images were captured with a Leitz Fluovert FU (Leica Microsystems, Wetzlar, Germany) microscope. Lipids appeared red. For quantitative analysis of cellular lipids, 1 mL isopropanol was added to each well of the stained culture plate. The extracted dye was immediately removed by gentle pipetting and its absorbance was measured at 510 nm.

ACC = assay: Western blot of phosphorylated ACC in HepG2 cells; assay type: cell-based, Human; conditions: twenty-four hours of treatment
Protocol: (§1) Human hepatocellular carcinoma cells (HepG2), obtained from American Type Culture Collection (Manassas, Va., USA), were cultured in low-glucose (LG) Dulbecco's modified Eagle's medium (DMEM) ([…], Invitrogen, Carlsbad, Calif., USA) or high-glucose (HG) DMEM ([…]) supplemented with 10% fetal bovine serum (FBS) and […] penicillin/streptomycin in an atmosphere of 5% CO2 at 37° C. These cells were then treated with tested compounds at various concentrations for 24 h. After treatments, cells were lysed in a buffer containing 20 mM Tris-HCl (pH 7.5), 0.9% NaCl, 0.2% Triton X-100, and 1% of the protease inhibitor cocktail (Sigma-Aldrich, Milan, Italy) and then stored at −80° C. for further western blot analysis. All the analyses were conducted on cells between the third and the sixth passage.
(§2) Proteins (20-30 μg) were separated on CriterionTGX™ gel (4-20%) and transferred on Immuno-PVDF membrane (Biorad, Milan, Italy) for 1 h. Blots were incubated with the primary antibody at 4° C. overnight. All the polyclonal antibodies for the protein of interest were purchased from Santa Cruz Biotechnology, Inc., Dallas, TX, USA. Then, blots were washed 3 times for 10 minutes with 1×TBS, 0.1% Tween® 20 and incubated for 1 h with secondary antibody (peroxidase-coupled anti rabbit in 1×TBS, 0.1% Tween®20). […] Band densitometric analysis was performed using Image Lab Software (Biorad, Milan, Italy).
(§3) The liver is a major organ responsible for most functions of cellular metabolism and a mediator between dietary and endogenous sources of energy for extrahepatic tissues. In this context, AMPK constitutes an intrahepatic energy sensor regulating physiological energy dynamics by limiting anabolism and stimulating catabolism, thus increasing ATP availability. Once activated, AMPK phosphorylates its downstream substrates to reduce ATP-consuming anabolic pathways, including cholesterol, fatty acid, and triacylglycerol synthesis, and increases ATP-generating catabolic pathways, including fatty acid oxidation and lipolysis. […]

HepG2 cells [2] = assay: Cell viability MTT assay; assay type: cell-based; conditions: 1-10 μM, 24 h
Protocol: HepG2 cells were seeded in a 96-well plate (Corning, USA) at a density of 1.0×10^4 cells/well with DMEM (200 μl/well), and then incubated for 24 h according to routine procedure. After being treated with test compounds (1-10 μM) and incubated for 24 h (8 wells for each sample), 20 μL/well MTT (5 g/L) was added to each well. The medium was then removed after 4 h incubation and 100 μL/well sodium dodecyl sulfate (SDS)-HCl solution was added to dissolve the reduced formazan product after incubation for 16 h at 37° C. Finally, the plate was read at 570 nm, using a micro-plate reader (Bio-Rad 680, USA).

AMPK = assay: Western blot of phosphorylated AMPK in HepG2 cells; assay type: cell-based, Human; conditions: twenty-four hours of treatment, dose dependent
Protocol: as §1, §2, §3

pancreatic acinar cells = assay: Pancreatic acinar cell proliferation (BrdU labeling index); assay type: in vivo, rats; conditions: one week; T3 4 mg/kg diet; GC1 50 μg/kg gavage once daily; TG68 and IS25 50 μg/kg in drinking water
Protocol: FIG. 9. […] BrdU (1 mg/ml) in drinking water was given all throughout the experimental time. […] LI was expressed as number of BrdU-positive acinar cell nuclei/100 nuclei. At least 2000 acinar cells per pancreas were scored. Results are expressed as means±SE of 3 to 5 rats per group. (one way ANOVA). ***Statistically significant from control; P<0.001.
BrdU (1 mg/ml) in drinking water was given all throughout the experimental time. […] LI was expressed as number of BrdU-positive acinar cell nuclei/100 nuclei. At least 2000 acinar cells per pancreas were scored.

[3] = known property of the reference; cited from earlier work

CCN(CC)CCCC(C)Nc1ccnc2cc(Cl)ccc12 (stereo not drawn) [Cloroquine]
red lipid droplets (Oil Red O), steatosis-inducing positive control (HepG2 cells [1]): high amount of red lipid droplets

N[C@@H](Cc1cc(I)c(Oc2ccc(O)c(I)c2)c(I)c1)C(=O)O [Compound T3, 3,5,3′-triiodothyronine, reference compound]
ACC phosphorylation (p-ACC) (ACC): significant ACC phosphorylation | cell viability (cell death with respect to control) (HepG2 cells [2]): did not significantly (p<0.05) cause cell death | expression of p-AMPK (AMPK): significantly (p<0.05) increased

Cc1cc(OCC(=O)O)cc(C)c1Cc1ccc(O)c(C(C)C)c1 [GC-1, Sobetirome, reference compound]
pancreatic acinar cell proliferation (BrdU-positive acinar cells) (pancreatic acinar cells): Several BrdU-positive acinar cells were observed | solubility in water [3]: insoluble compound in water
